Test results: the METLIN SMRT retention time set (Domingo-Almenara et al. 2019)

Assay: gradient 5% acetonitrile 3 min, to 50% in 2 min, to 85% in 15 min, held 3 min, 100 µL/min
Conditions: column: Zorbax Extend-C18 2.1 x 50 mm; eluents: water / acetonitrile, 0.1% formic acid
How it was run: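 Over 3 months, pure standards in mixtures of ~100 molecules were run by HPLC coupled to a quadrupole time-of-flight mass spectrometer in positive and negative ionization mode. The column was a Zorbax Extend-C18 (2.1 × 50 mm, 1.8 μm) at 100 μL/min, eluted with water and acetonitrile each holding 0.1% formic acid, with 40 μL dead and 900 μL dwell volumes. Retention time was determined from adduct peaks chosen by software and checked manually.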

Row | SMILES | RP-LC retention time [s]
1 | Cc1ccc(C(=O)N2CC3CN(S(=O)(=O)c4cccc(F)c4)CC(C2)O3)s1 | 821
2 | CN1CCN(C(=O)C2CCN(S(=O)(=O)c3ccc(-c4noc(C5CC5)n4)cc3)CC2)CC1 | 636
3 | Cc1cccc(N2CCN(c3ccc4cc(S(=O)(=O)N5CCCCC5)ccc4n3)CC2C)c1 (centres undefined) | 1110
4 | CC1CCN(S(=O)(=O)c2ccc3nn(Cc4cc(F)cc(F)c4)c(=O)n3c2)CC1 | 1040
5 | COc1ccc(CCS(=O)(=O)NCC2CCN(C(=O)Oc3ccccc3)CC2)cc1 | 888
6 | CCn1c(=O)c(N2CCN(C(=O)NCCCOC)CC2)nc2ccccc21 | 727
7 | CCN1CCN(CCNC(=O)c2cccn2-c2nnc(N3CCCCCC3)s2)CC1 | 600
8 | Cn1nc(C(=O)N2CCOCC2)c2c1CCN(C(=O)Nc1ccc(F)c(Cl)c1)C2 | 1070
9 | O=C1CCC2(CNC(=O)NCCc3ccccc3)CCCC=C2N1 (centres undefined) | 623
10 | O=S1(=O)C[C@H](N2CCN(c3ncccn3)CC2)[C@@H](S(=O)(=O)c2ccc(F)cc2)C1 | 772
11 | CCOc1ccc(S(=O)(=O)N2CCC(C(=O)NCCOC)CC2)cc1 | 709
12 | O=C(NC1CC1)c1cccc(OCC2CCCN(C(=O)C3CCCO3)C2)c1 (centres undefined) | 689
13 | CC1CCC(NC(=O)CN2C(=O)C(C(=O)N3CCCCC3)Sc3ccccc32)CC1 (centres undefined) | 1090
14 | COC(=O)C1=C(CN2CCOCC2)NC(=O)NC1c1ccc(OC)c(OC)c1 (centres undefined) | 571
15 | CC(C)Oc1cncc(C(N)=O)c1 | 583
16 | Cc1ccc(CNC(=O)C2CCN(S(=O)(=O)c3cc(-c4noc(C)n4)sc3C)CC2)o1 | 906
17 | CCc1nc(-c2csc(S(=O)(=O)N3CCCC(C(=O)Nc4ccccc4F)C3)c2)no1 (centres undefined) | 1010
18 | Cc1cc2nn(CC(=O)Nc3ccccc3)c(=O)n2c(N2CCCC2)n1 | 703
19 | COc1cccc(C(=O)N2CCC3(CC2)NC(=O)c2ccc(Cl)cc2N3)c1 | 746
20 | CN1CCc2c(c(CNC(=O)c3cc(CN4CCOCC4)on3)nn2C)C1 | 770
21 | CC(=O)N1CCC2(CC1)OC(=O)C(C)=C2C(=O)NCc1ccccc1Br | 721
22 | O=C(Cn1ccnc1-c1ccnc(N2CCCC2)c1)NC1CCCCC1 | 595
23 | Nc1ccc(S(=O)(=O)NCC2CCCCO2)cc1 (centres undefined) | 733
24 | CC1Cc2ccccc2N1C(=O)Cc1csc2nc(-c3ccccc3)cn12 (centres undefined) | 881
25 | O=C(Cn1cccc(S(=O)(=O)N2CCCCCC2)c1=O)N1CCCc2ccccc21 | 850
26 | CC(CCc1ccccc1)NC(=O)CN1CCCN(Cc2cccc(Cl)c2)S1(=O)=O (centres undefined) | 1120
27 | CCCS(=O)(=O)NCc1ccc2c(c1)CCN2C(=O)CC(C)C | 862

Row | SMILES | RP-LC retention time [s]
28 | CCCNC(=O)C1CCCN(c2ccc(SCC(=O)NCc3ccccc3Cl)nn2)C1 (centres undefined) | 661
29 | Cc1onc(-c2c(Cl)cccc2Cl)c1C(=O)N1CCN(C)CC1 | 609
30 | CCCN1CCN(CCCNC(=O)CCCn2c(=O)c3cccn3c3ccc(F)cc32)CC1 | 584
31 | O=C(O)/C=C\C(=O)Nc1ccc(-c2ccccc2)cc1 | 903
32 | COc1ccc(C2C(C(=O)N3CCCC(C)C3)CCC(=O)N2c2cc(OC)c(OC)c(OC)c2)cc1 (centres undefined) | 772
33 | COc1ccc2sc(OC3CCN(C(=O)c4cnn(-c5ccccc5)n4)CC3)nc2c1 | 1140
34 | O=C(Nc1cccc(C(F)(F)F)c1)N1CCC(N2C[C@H]3C[C@H](C2)[C@H]2CCCC(=O)N2C3)CC1 | 653
35 | Cc1nc(-c2ccc(S(=O)(=O)N3CCc4ccccc4C3)cc2)co1 | 1020
36 | Cc1ccsc1C(=O)N1CCN(c2cc(-c3ccccc3)[nH]n2)CC1 | 744
37 | O=C(NC1CCN(c2cc(-c3cccs3)[nH]n2)C1)c1ccccc1 (centres undefined) | 695
38 | O=S(=O)(Nc1ccc(N2CCOCC2)cc1)C1CC1 | 623
39 | CN(C)C[C@@H]1CN(S(C)(=O)=O)C[C@H]1NC(=O)C1(c2ccccc2)CCCC1 | 663
40 | CC1CCN(C(=O)C2CCN(S(=O)(=O)c3cc(C(=O)N4CCCC4)n(C)c3)CC2)CC1 | 750
41 | COc1ccccc1NC(=O)C1CCN(c2cnc(N3CCCCCC3)nc2)CC1 | 826
42 | Cc1ccc(C)c(N2CCN(c3ccnc(SCC(=O)NC4CCCC4)n3)CC2)c1 | 886
43 | Cn1nnc2ccc(-c3noc(-c4ccc(F)cc4)n3)cc21 | 981
44 | COc1ccc(C2CC(=O)N(c3ccc(OC)cc3)C(=O)C2)cc1 | 864
45 | Cc1ccnc(OCC(=O)NC(C)C)n1 | 586
46 | O=C(NCc1ccccc1F)C1CCN(c2cnc(N3CCCC3)nc2)CC1 | 654
47 | Cc1oc(-c2[nH]ncc2C(=O)N(C)C)cc1S(=O)(=O)N1CCOCC1 | 604
48 | O=C(NCc1csc(-c2ccccc2)n1)[C@H]1CCCN1C(=O)c1cccc(Br)c1 | 889
49 | COc1ccc(OC)c(NC(=O)CSc2ccc(N3CCCC(C(=O)NC4CC4)C3)nn2)c1 (centres undefined) | 672
50 | CCN1CCCn2cc(S(=O)(=O)Nc3ccc(F)cc3)cc2C1=O | 721
51 | O=C(Cc1csc(NC(=O)C2CC2)n1)NCc1ccccn1 | 519
52 | O=C(NCC1CCCO1)C1CCN(c2ccc(=O)n(-c3cccc(Cl)c3)n2)CC1 (centres undefined) | 721
53 | CN1Cc2ccccc2-n2ccnc2C12CCN(C(=O)c1cccc(C(F)(F)F)c1)CC2 | 594

Now from value to compound:

Row | RP-LC retention time [s] | SMILES
54 | 611 | O=C(NCc1ccc(F)cc1)N1CCN(c2cc(-c3ccncc3)[nH]n2)CC1
55 | 729 | CC(=O)Nc1ccc(Cc2nc(-c3ccc4c(c3)oc(=O)n4C)no2)cc1
56 | 604 | O=C1CCCCC(CNC(=O)c2n[nH]c(=O)c3ccccc23)N1 (centres undefined)
57 | 763 | Cc1nc2c(NC(=O)c3ccccn3)cccn2n1
58 | 949 | Cc1ccc(F)cc1NC(=O)c1cc2n(n1)CCCC2
59 | 985 | CCc1nn2c(CNC(=O)c3ccc(C)c(F)c3)c(-c3ccccc3)nc2s1
60 | 1020 | Oc1c(Cl)cc(Cl)c2cccnc12
61 | 912 | O=C(Cn1c2ccccc2c2ncn(Cc3nc(-c4ccccc4)no3)c(=O)c21)NC1CCCC1
62 | 688 | COc1ccc(-c2cc(N3CCC(NC(=O)c4ccccc4Br)C3)n[nH]2)cc1 (centres undefined)
63 | 967 | CC1=NS(=O)(=O)N(C)C=C1C(=O)OCc1cccc(C)c1
64 | 671 | CCOc1cc(C2NCCc3c2[nH]c2ccc(Cl)cc32)ccc1O (centres undefined)
65 | 582 | COc1cccc(CNC(=O)C2CCN(CC(=O)Nc3ccc(C)cc3)CC2)c1
66 | 1020 | Cc1ccccc1NC(=O)N1CCc2nc(-c3ccc(Cl)cc3)ncc2C1
67 | 1020 | Cc1cccc(NC(=O)Cn2cnc3c(sc4nc(-c5ccccc5)ccc43)c2=O)c1C
68 | 1020 | COc1ccccc1Cc1nc(-c2cn(-c3ccc(F)cc3)nn2)no1
69 | 1060 | COc1cc(Cl)ccc1-c1nc(-c2cccc(-c3ccn[nH]3)c2)no1
70 | 686 | CCCOc1ccc(NC(=O)c2cc(=O)c3ccc(C)cc3o2)c2cccnc12
71 | 758 | O=C(NCc1cc(-c2ccc3c(c2)OCO3)on1)c1cc(=O)c2ccccc2o1

Row | RP-LC retention time [s] | SMILES
72 | 757 | O=C(Nc1c(C(=O)N2CCN(c3ccccn3)CC2)oc2ccccc12)c1ccc([N+](=O)[O-])cc1
73 | 772 | COCCNC(=O)c1cc(-c2ccc(C)c(C)c2)[nH]c1C
74 | 1400 | CCCN(C(=O)Nc1ccccc1[N+](=O)[O-])c1nc(-c2ccccc2)cs1
75 | 612 | CCN(CC)CCCNC(=O)c1ccc(-c2ccc3c(c2)CCN3C(C)=O)cc1
76 | 905 | COCCN1C(=O)c2ccccc2C(C(=O)Nc2ccccc2OC)C12CCCC2 (centres undefined)
77 | 610 | CNC(=O)c1cccc(Nc2c(-c3ccc(N(C)C)cc3)nc3cnccn23)c1
78 | 643 | O=C(Cn1ncc2c(N3CCN(c4ccccn4)CC3)ncnc21)Nc1ccc(Cl)cc1
79 | 647 | CCOc1cccc(-c2noc(Cn3ccnc3C)n2)c1
80 | 876 | CCOc1ccc(NS(=O)(=O)c2cc(C(=O)N3CCN(c4ccc(F)cc4)CC3)n[nH]2)cc1
81 | 698 | COc1ccc(OC)c(N2C(=O)c3cccnc3C2Nc2ccc(C(C)=O)cc2)c1 (centres undefined)
82 | 904 | Cc1nn(C(C)C(=O)NCCc2c[nH]c3ccccc23)c(=O)c2c(C)n(-c3ccccc3)nc12 (centres undefined)
83 | 1240 | O=C(Nc1ccc(Br)cc1)C1CCCN(c2ncc(-c3ccccc3)cn2)C1 (centres undefined)
84 | 892 | Cc1ccc(CNC(=O)c2nnc(-c3ccc(S(=O)(=O)N(C)C)cc3)o2)cc1
85 | 793 | O=C(CCc1ccc2[nH]ccc2c1)NCc1ccc(F)cc1
86 | 836 | COc1cc(NC(=O)Cn2nc(N(C)C)c3ccccc3c2=O)cc(OC)c1
87 | 1280 | CCCCn1c(=O)c2ccccc2n(Cc2nc(-c3ccc(OC(F)(F)F)cc3)no2)c1=O
88 | 776 | Cc1cccc(C)c1NC(=O)C1CCCN(c2nnc(C)c3c(C)n(-c4ccccc4)nc23)C1 (centres undefined)
89 | 699 | CCCN1C(=O)c2n[nH]c(-c3ccco3)c2C1c1ccc(O)c(OC)c1 (centres undefined)
